Results reported in US7399744B2, “Methods for affecting body composition” (Amylin Pharmaceuticals, Inc., priority 2004, dated 2008).
Marks after values point to notes of the source that are not given here.

Assay: Amylin or sibutramine by 28-day osmotic pump in high fat-fed rats (Example 1)
Type: in vivo, rat
Conditions: amylin 300 μg/kg/day or sibutramine 3 mg/kg/day, s.c. 28-day osmotic pump, high fat-fed rats, vs high fat-fed controls
Procedure: Low fat-fed rats (11% kcal from fat, D12329, Research Diets) were also implanted with pumps delivering vehicle. Food intake and body weight measurements were obtained weekly.
Rats were sacrificed by cardiac puncture under anesthesia. Triglyceride levels were measured on a COBAS Mira plasma analyzer (Roche), and leptin and insulin were assayed according to Linco Research rat RIA kits. Body composition was measured by chemical analysis (Covance Laboratories, Madison, Wis.).
All data are represented as mean±SEM. Analysis of variance was used to test for group differences.
The rats were fattened for 10 weeks prior to drug treatment. The high fat-fed rats were designated as obesity-prone (top 50% of weight gainers) or obesity-resistant (bottom 50%) based on the amount of weight gained through week 7.
In this study, an obesity-prone/obesity-resistant difference in drug interaction was found for protein weight in amylin-treated rats, and thus body composition parameters were measured separately in obesity-prone and obesity-resistant animals in each drug group (FIGS. 2A and 2B).

## CC(C)CC(N(C)C)C1(c2ccc(Cl)cc2)CCC1 (centres unmarked) [SIBUTRAMINE, sibutramine, reference compound]
Week 1
  Body Weight: 6%*
  Caloric Intake: 45%*
Week 2
  Body Weight: 6%*
  Caloric Intake: 8%*
Week 3
  Body Weight: 6%*
  Caloric Intake: −1%
Week 4
  Body Weight: 3%
  Caloric Intake: −3%
